A word on the AUC(0-inf): it is the area under the concentration-time curve extrapolated to infinity. In general, AUC(0-t) refers to the area under the concentration-time curve up to a stated or last time point. Usually half-life stands for how long it takes for the measured level to halve. The Tmax is the time at which the peak concentration occurs.

The values that follow come from patent US20080234341A1, “Carisoprodol and Phenytoin Methods” (MUTUAL PHARMACEUTICAL COMPANY, INC., priority 2006, published 2008).

Molecules are shown by their SMILES.

Data set [1] can be described thus: Single-dose two-way crossover study of phenytoin pharmacokinetics, alone or co-administered with carisoprodol. The following applies: human, in vivo; for half-life / Tmax: least sq. mean. The protocol: The study was designed as a randomized, single-dose two-way crossover to compare the pharmacokinetic parameters of carisoprodol (350 mg SOMA® (carisoprodol) Tablets by MedPointe Pharmaceuticals, MedPointe Healthcare Inc.) and phenyloin (PROMPT® Phenyloin Sodium 100 mg Capsules by IVAX Pharmaceuticals, Inc.). Twelve healthy adults participated in this comparison study and all of the subjects completed the study.
Subjects received two separate drug administration treatments in assigned periods, one treatment per period, according to the randomization schedule. Treatment (A) was 3 PROMPT® Phenyloin Sodium 100 mg capsules with 240 mL of room temperature water after an overnight fast. Treatment (B) was 3 PROMPT® Phenyloin Sodium 100 mg capsules and 2 tablets of SOMA® (carisoprodol 350 mg tablets) after an overnight fast.
Dosing days were separated by a washout period of at least fourteen days. Blood samples were drawn prior to dosing (pre-dose) and at 0.5, 1, 1.5, 2, 2.5, 3, 3.5, 4, 4.5, 5, 6, 7, 8, 10, 12, 18, 24, and 48 hours post-dose. The samples were then analyzed for total phenyloin. At study hours 2, 4, 6, 12 and 24 an additional blood sample was collected for the determination of “free” phenyloin.
The area under the plasma concentration versus time curve [AUCt] may be calculated using the linear trapezoidal rule from the zero time point to the last measured concentration.
The area under the plasma concentration versus time curve from zero to infinity [AUC0-INF] may be calculated by adding Ct/Kelm to AUC where Ct is the last measured concentration and Kelm is the elimination rate constant.
The maximum observed plasma concentration [Cmax] may be obtained by inspection.
The time to maximum plasma concentration [Tmax] may be obtained by inspection. If the same maximum plasma concentration occurs at more than one time point, the first may be chosen as Tmax.
The terminal elimination rate constant [Kelm] may be obtained from the slope of the line, fitted by linear least squares regression, through the terminal points of the ln(base e) of the concentration versus time plot for these points.
The half-life [T1/2] may be calculated by the equation T1/2=0.693/Kelm.

Data set [2] has as its system plasma proteins in the bloodstream such as albumin. The following applies: cited from earlier work.
Data set [3] can be described thus: Drug interaction study: carisoprodol added to a steady-state regimen of phenytoin. The following applies: human, in vivo; for half-life / Tmax: least sq. mean. The method, then: A single-arm, two-way drug interaction study was conducted in which carisoprodol (350 mg SOMA®) was added to a steady state regimen of phenyloin (PROMPT® Phenyloin Sodium 100 mg Capsules). The effects of coadministration of carisoprodol at steady state conditions on the Cmax and AUC of phenyloin are summarized in Table 5. Twenty-four healthy adults participated in this comparison study and twenty-one of the subjects completed the study.
On study Days 1 through 14, a single 300 mg (1×300 mg capsule) dose of phenyloin sodium was administered to all study subjects following an overnight fast of at least 10 hours.
On study Days 15 through 28, a single 300 mg (1×300 mg capsule) dose of phenyloin sodium and a single 350 mg (1×350 mg tablet) dose of carisoprodol were co-administered to all study subjects following an overnight fast of at least 10 hours. A single dose of carisoprodol was re-administered to all study subjects 3 more times a day (every 6 hours) for Days 15 through 28.
Phenyloin: On study Days 14 and 28, 18 blood samples were collected (6 mL each) from each subject by direct venipuncture using pre-labeled Vacutainers® containing K2 EDTA as an anticoagulant. Blood samples were collected within one hour prior to dosing and after dose administration at study hours 0.5, 1, 1.5, 2, 2.5, 3, 3.5, 4, 4.5, 5, 6, 7, 8, 10, 12, 18, and 24.

The conditions of data set [4]: cited from earlier work.
For data set [5] the following is noted: cited from earlier work. The source holds these as a separate data set.

Consider `O=C1NC(=O)C(c2ccccc2)(c2ccccc2)N1` [Phenytoin, 5,5-diphenylhydantoin], for which, in data set [1], the “AUC0-INF, free phenytoin, geometric mean” value stood at 12927.88 ng·h/mL; the “AUC0-t, free phenytoin, geometric mean” value worked out at 5150.25 ng·h/mL; the AUC(0-inf) came to 134000 ng·h/mL; the AUC(0-t) worked out at 97300 ng·h/mL. In data set [1], the “Cmax, total phenytoin, geometric mean” value stood at 3222.2 ng/mL; the “Kelm, total phenytoin, least sq. mean” value was 0.03395; the “kelm, free phenytoin, least sq. mean” value stood at 0.0279. In addition, the half-life in data set [1] (T1/2, free phenytoin) is 35.8 h. Further, the half-life in data set [1] (T1/2, total phenytoin) was 23.9 h. Besides, in data set [1] (free phenytoin), the Tmax came to 9.17 h. Moreover, the time to peak (Tmax) in data set [1] (total phenytoin) was determined as 7.44 h. Moreover, the “bound to plasma proteins” value in data set [2] is listed as “about 90%”. Further, in data set [3], the “AUC0-INF, free steady-state phenytoin, geometric mean” value came out at 32701.49 ng·h/mL; the “AUC0-t, free steady-state phenytoin, geometric mean” value stood at 14733.48 ng·h/mL; the “Cmax, total steady-state phenytoin, geometric mean” value stood at 13604.17 ng/mL; the “kelm, free steady-state phenytoin, least sq. mean” value came to 0.0312. In data set [3], the “kelm, total steady-state phenytoin, least sq. mean” value was found to be 0.0233. Further, the “Cmax, free steady-state phenytoin, geometric mean” value in data set [3] (350 mg) amounted to 929.76 ng/mL. Further, the half-life in data set [3] (T1/2, free steady-state phenytoin) is 35.4 h. In data set [3] (T1/2, total steady-state phenytoin), this compound showed a half-life of 39.4 h. For the same compound, in data set [3] (free steady-state phenytoin), the Tmax was 5.04 h. In addition, the Tmax in data set [3] (total steady-state phenytoin) came out at 3.55 h. Also, the “typical clinically effective serum level of unbound or free phenytoin (therapeutic range)” value in data set [4] (free phenytoin) was 1 to 2 µg/mL. In addition, the “typical clinically effective serum level of total phenytoin (therapeutic range)” value in data set [4] (total phenytoin) is 10 to 20 µg/mL.

As to `CCCC(C)(COC(N)=O)COC(=O)NC(C)C` (centres unmarked) [Carisoprodol, N-isopropyl-2-methyl-2-propyl-1,3-propanediol dicarbamate], the “solubility in alcohol, chloroform, and acetone (descriptive)” value in data set [5] (alcohol, chloroform, acetone) is “freely soluble”. In data set [5] (water), the “solubility in water (descriptive)” value is “very sparingly soluble”.
